# Experiments:
# [1] = Metabolite identification in urine of male, bile duct-cannulated rats after intravenous dosing; type: in vivo, rat; settings: carbon 14 labeled, intravenous 20 mg/kg in saline, urine collected over 24 hours
# Procedure: Purification of 3-(2-Phenethyleneamino)-6-hydroxymethyl-1-(2-methyl-6-amino-3-methylenecarboxamidomethyl)pyrazin-2-one from male, bile duct-cannulated rats.
# (§1) Rats were dosed intravenously with carbon 14 labeled [drawing 16] at 20 mg/kg in saline at 1 mL/kg. Bile and urine were collected periodically over 24 hours. Aliquots of these were analyzed for total radioactivity. Urine was also fractionated by HPLC using Zorbax XDB-C8 column eluted with 0.1% trifluoroacetic acid-water and acetonitrile gradient, and the fractions analyzed by mass spectrometry.
# [2] = system: thrombin; experiment: Bioassay of HPLC urine fractions for inhibitory effect on thrombin activity; type: biochemical; settings: urine HPLC fraction from rats, evaporated to dryness
# Procedure: as §1
# In another procedure, the urine was fractionated by HPLC. An aliquot of the fractions was assayed for total radioactivity, and the remaining volume was evaporated to dryness, under nitrogen, and bioassayed for inhibitory effect on the thrombin activity.
SMILES,metabolite in urine (site of hydroxylation) [1],inhibitory effect on the thrombin activity [2]
Cc1nc(N)ccc1CNC(=O)Cn1c(C)cnc(NCCc2ccccc2)c1=O,hydroxylation on the methylpyrazinone moiety,
Cc1nc(N)ccc1CNC(=O)Cn1c(CO)cnc(NCCc2ccccc2)c1=O [6-HYDROXYMETHYL-3-(2-PHENETHYLAMINO )-1-(2-AMINO-6-METHYL-5-METHYLCARBOXAMIDOMETHYLPYRIDINYL)-PYRAZINONE],,significant inhibitory activity

# Source: patent US6147078A, “Pyrazinone thrombin inhibitors” (Merck & Co., Inc., priority 1999, dated 2000)
